Our source for the TGI values is PubChem BioAssay (NCI).

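Tested at 5 concentrations; 48 h exposure; 96-well plates; endpoints linearly interpolated, else capped at highest concentration. TGI: total growth inhibition.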

Some test systems named below: OVCAR-3 ovarian; CAKI-1 renal; SK-MEL-28 melanoma; NCI-H460 lung; SK-MEL-2 melanoma; COLO 205 colon; RXF 393 renal; CCRF-CEM leukemia; UACC-62 melanoma; IGROV1 ovarian; MDA-MB-435; LOX IMVI melanoma.
Assay in all cases: growth of human tumour cells (NCI), 48 h

Take `COc1ccc(OC)c2nc3c(C(=O)NCCN(C)C)cccc3nc12`: the TGI in the assay on OVCAR-3 ovarian was 42.3 µM; with CAKI-1 renal it was over 74 µM; with SK-MEL-28 melanoma it was 22.2 µM; in the assay on NCI-H460 lung, 21.5 µM; in the assay with SK-MEL-2 melanoma, 25.9 µM; in the assay on COLO 205 colon it was 11.9 µM. In addition, the TGI with RXF 393 renal was 23.2 µM; with CCRF-CEM leukemia it was 11 µM; in the assay on UACC-62 melanoma, over 49.3 µM; in the assay with IGROV1 ovarian, over 69.5 µM; in the assay on MDA-MB-435, 17.5 µM; in the assay on LOX IMVI melanoma, 4.91 µM.

For the compound `[N-]=[N+]=Nc1ccc2c(c1)Sc1ccccc1N2CCCCCl`, the TGI in the assay on OVCAR-3 ovarian was over 100 µM; with CAKI-1 renal, over 100 µM; in the assay on SK-MEL-28 melanoma it was over 100 µM; with NCI-H460 lung, over 100 µM; in the assay with SK-MEL-2 melanoma, 76.9 µM; in the assay with COLO 205 colon it was 82.3 µM. Also, the TGI in the assay with RXF 393 renal, with CCRF-CEM leukemia, in the assay on UACC-62 melanoma, in the assay on IGROV1 ovarian, with MDA-MB-435 and in the assay on LOX IMVI melanoma was over 100 µM throughout.

For `CC1=C(OC2OC(CO)C(O)C(O)C2O)C(=O)C[C@H]2C1=CC[C@@H]1[C@@]2(C)C(=O)C[C@]2(C)[C@@H]([C@@](C)(O)C(=O)CCC(C)(C)O)[C@H](O)C[C@@]12C` (some centres not stated), the TGI in the assay on OVCAR-3 ovarian, in the assay with CAKI-1 renal, in the assay on SK-MEL-28 melanoma, in the assay with NCI-H460 lung, with SK-MEL-2 melanoma and in the assay on COLO 205 colon was over 100 µM throughout. For the same compound, the TGI with RXF 393 renal, in the assay with CCRF-CEM leukemia, in the assay on UACC-62 melanoma, in the assay on IGROV1 ovarian, with MDA-MB-435 and in the assay on LOX IMVI melanoma was over 100 µM each time.

With `Cc1ccccc1N(C)S(=O)(=O)c1ccccc1[N+](=O)[O-]`, the TGI in the assay with OVCAR-3 ovarian, in the assay with CAKI-1 renal, in the assay with SK-MEL-28 melanoma, with NCI-H460 lung, in the assay with SK-MEL-2 melanoma and with COLO 205 colon was over 100 µM each time. Moreover, the TGI in the assay on RXF 393 renal was 83 µM; in the assay with CCRF-CEM leukemia, over 100 µM; with UACC-62 melanoma it was over 100 µM; with IGROV1 ovarian, over 100 µM; in the assay with MDA-MB-435, over 100 µM; in the assay with LOX IMVI melanoma, over 100 µM.

Regarding `CCN(CC)CCS(=O)c1c2cc(OC)ccc2nc2ccc(OC)cc12` (configuration not stated), the TGI in the assay with OVCAR-3 ovarian was 15.6 µM; in the assay on CAKI-1 renal, 23.9 µM; in the assay with SK-MEL-28 melanoma, 34.4 µM; in the assay on NCI-H460 lung, over 82.2 µM; in the assay with SK-MEL-2 melanoma, 40.3 µM; with COLO 205 colon it was 3.99 µM. Besides, the TGI in the assay with RXF 393 renal was 24.6 µM; with CCRF-CEM leukemia, over 25.6 µM; in the assay with UACC-62 melanoma, 36.8 µM; in the assay with IGROV1 ovarian, 8.52 µM; in the assay on MDA-MB-435, 26.6 µM; in the assay with LOX IMVI melanoma it was over 42.9 µM.

As for `CCOC(=O)n1cncc1CC(NC(=O)Cc1c(C(=O)C=C(C)C)[nH]c2ccccc12)C(=O)OC` (configuration not stated), the TGI was determined as 38.9 µM in the assay with OVCAR-3 ovarian; 34.8 µM in the assay on CAKI-1 renal; 32.8 µM in the assay with SK-MEL-28 melanoma; 58 µM in the assay with NCI-H460 lung; 34.2 µM with SK-MEL-2 melanoma; 41 µM in the assay on COLO 205 colon. In addition, the TGI worked out at 28.5 µM in the assay with RXF 393 renal; 50.9 µM with CCRF-CEM leukemia; 36.3 µM in the assay with UACC-62 melanoma; 37.5 µM with IGROV1 ovarian; 37.1 µM in the assay on MDA-MB-435; 35.6 µM in the assay with LOX IMVI melanoma.

`C=C(C)[C@@H]1CC[C@]2(C(=O)O)CC[C@]3(C)[C@H](CC[C@@H]4[C@@]5(C)CC[C@H](C(=O)/C=C/c6ccc(O)cc6)C(C)(C)[C@@H]5CC[C@]43C)[C@@H]12`: the TGI amounted to 10.3 µM with OVCAR-3 ovarian; 9.43 µM with CAKI-1 renal; 26.5 µM in the assay on SK-MEL-28 melanoma; 17.3 µM in the assay on NCI-H460 lung; 46.8 µM in the assay with SK-MEL-2 melanoma; 9.53 µM in the assay with COLO 205 colon. For the same compound, the TGI in the assay on RXF 393 renal worked out at 65.1 µM; in the assay on CCRF-CEM leukemia, 23.6 µM; in the assay on UACC-62 melanoma, 30 µM; in the assay on IGROV1 ovarian, 28.3 µM; in the assay with MDA-MB-435 it was 24.4 µM; in the assay with LOX IMVI melanoma, 22.4 µM.

On to `CC(=O)CCC[C@@H](C)[C@@H]1O[C@H]([C@@]2(C)CCC(=O)O2)C[C@H]2C(CSc3ccccc3)C(=O)O[C@@H]12` (some centres not stated), for which the TGI was 27.8 µM in the assay on OVCAR-3 ovarian; 27.2 µM in the assay with CAKI-1 renal; 41.7 µM in the assay on SK-MEL-28 melanoma; over 57.5 µM with NCI-H460 lung; 40.6 µM with SK-MEL-2 melanoma; 31.4 µM in the assay on COLO 205 colon. Also, the TGI is 15.9 µM in the assay on RXF 393 renal; 24.9 µM in the assay on CCRF-CEM leukemia; 28.5 µM in the assay on UACC-62 melanoma; over 38 µM with IGROV1 ovarian; 45.6 µM with MDA-MB-435; 38.2 µM in the assay with LOX IMVI melanoma.

On to `CC(C)(C)N1NC1C1NN1C(C)(C)C` (configuration not stated), for which the TGI in the assay on OVCAR-3 ovarian, in the assay on CAKI-1 renal, in the assay with SK-MEL-28 melanoma, in the assay on NCI-H460 lung, in the assay with SK-MEL-2 melanoma and in the assay with COLO 205 colon was over 100 µM each time. The TGI in the assay with RXF 393 renal, in the assay with CCRF-CEM leukemia, with UACC-62 melanoma, with IGROV1 ovarian, with MDA-MB-435 and in the assay with LOX IMVI melanoma was over 100 µM each time.

For `CCOC(=O)c1ccc(C(=O)/C(C#N)=C2\CCCN2)[nH]1`, the TGI with OVCAR-3 ovarian, in the assay with CAKI-1 renal, in the assay on SK-MEL-28 melanoma, with NCI-H460 lung, in the assay with SK-MEL-2 melanoma and in the assay with COLO 205 colon was over 100 µM in each case. Also, the TGI in the assay with RXF 393 renal, with CCRF-CEM leukemia, in the assay with UACC-62 melanoma, in the assay on IGROV1 ovarian, in the assay with MDA-MB-435 and with LOX IMVI melanoma was over 100 µM in each case.

With `O=C(Nc1nc(C23CC4CC(CC(C4)C2)C3)cs1)c1cc2cc(Br)cc(Br)c2oc1=O`, the TGI in the assay with OVCAR-3 ovarian, in the assay with CAKI-1 renal, with SK-MEL-28 melanoma, in the assay with NCI-H460 lung, with SK-MEL-2 melanoma and in the assay on COLO 205 colon was over 100 µM throughout. Further, the TGI in the assay with RXF 393 renal, in the assay with CCRF-CEM leukemia, in the assay on UACC-62 melanoma, with IGROV1 ovarian, in the assay with MDA-MB-435 and in the assay on LOX IMVI melanoma was over 100 µM throughout.
